Entries after “also recorded” stand apart in the source; their conditions may differ.

From patent US8865762B2, “Method for the treatment of bone diseases comprising colforsin daropate” (Korea Research Institute of Bioscience and Biotechnology, priority 2009, dated 2014) come the findings set out here.

The test system of data set [1] is ovariectomy-induced bone loss. Nature of the data set: Bone density-improving effect in ovariectomy-induced osteoporosis model (micro-CT). The class given is in vivo, DDY female mice. The following applies: ovariectomized mice, p.o. 5 mg/kg or 10 mg/kg once a day for 4 weeks, FIG. 4, monohydrochloride. The procedure: Thus, most studies are performed in animals. Ovariectomized mice are frequently used as a model for postmenopausal osteoporosis. Ovariectomized mice and early postmenopausal women share many similar characteristics, and thus ovariectomized mice have been commonly used in the studies of osteoporosis therapeutic agents. The present inventors performed ovariectomies on 5-week-old DDY female mice. The mice were anesthetized by intraperitoneal injection of 25 mg/kg of pentobarbital sodium (JW Pharmaceutical Corp). The abdomen of each mouse was shaved, and the surgical site was cleansed with antiseptics to perform ovariectomy. A 1.5 cm abdominal incision was made through the skin, muscle, and peritoneum to expose the ovary. The ovary was dissected out, and the peritoneum, muscle, and skin were sutured. As a control group, a sham ovariectomy was performed to the peritoneum identically, but the ovaries remained intact. The mouse models having ovariectomy-induced bone loss were orally administered (p.o.) with the colforsin compound at the concentrations of 5 mg/kg or 10 mg/kg once a day for 4 weeks. The effects were examined using a high resolution in-vivo micro-CT system (explore Locus scanner, GE Health Care, USA) to analyze the bone density.

The subject of data set [2] is murine osteoblastic cell, MC3T3-E1 subclone 4. Nature of the data set: Cell proliferation of osteoblastic cells. The class given is cell-based.
Data set [3] concerns ALP activity in multipotent C3H10T1/2 cells. Nature of the data set: Alkaline phosphatase (ALP) activity, C3H10T1/2. The class given is cell-based. The following applies: FIG. 3B. The procedure: (§1) A murine osteoblastic cell, MC3T3-E1 subclone 4 (ATCC CRL-2593) was treated with colforsin daropate. After 8 days, cells were lysed using a lysis buffer (10 mM Tris-HCl, pH 7.5, 0.5 mM MgCl2, 0.1% Triton X-100) at room temperature for 30 minutes, and centrifuged at 12,000 rpm and 4° C. for 20 minutes. Next, […] in the obtained supernatant using a BCA kit (Bio-Rad), and its activity was measured using a LabAssay ALP kit (Wako, Japan). In this regard, the measured activity was presented as a % of the control, and a significance test was performed by t-test (colforsin daropate treatment, p<0.05; purmorphamine treatment as control, p<0.05). The same experiment was performed using multipotent C3H10T1/2 cells (cells can differentiate toward various lineages, including osteocytes).

The test system of data set [4] is ALP activity in murine osteoblastic cell, MC3T3-E1 subclone 4. Nature of the data set: Alkaline phosphatase (ALP) activity of osteoblast, MC3T3-E1. Format: cell-based. Further details: osteoblast differentiation-related ALP activity compared with the control compound purmorphamine: dose or concentration left out as unconfirmed. The procedure: as §1, with “In order to examine the effect of colforsin daropate on the activity of ALP, of which activity and expression are known to be increased at an early stage of osteoblast differentiation, the following experiment was performed. A murine” for “A murine”

Data set [5] relates to TRAP activity induced by RANKL in the monocytic cell line RAW264.7. Nature of the data set: Osteoclast differentiation, TRAP staining and activity assay. The class given is cell-based, murine. The procedure:
At this time, α-MEM containing 100 ng/ml RANKL (R&D systems) and 10% FBS was used as a cell suspension medium. After 24 hours, the cells were treated with colforsin daropate at various concentrations (0, 0.2, 1, 2, 10, and 20 μM). After 3 days, TRAP staining was performed using a leukocyte acid phosphatase kit (Sigma). The stained cells were first fixed in 10% formalin for 10 minutes, and then dehydrated in 95% ethanol, and dried well at room temperature. Subsequently, 100 μl of citrate buffer (50 mM, pH 4.6) containing 10 mM sodium tartrate and 5 mM p-nitrophenylphosphate was added to each well, and reacted for 20 to 30 minutes. Thereafter, the enzyme reaction mixtures were transferred into new 96-well plates, and the reaction was terminated using 100 μl of 0.1 N NaOH. Absorbance was measured at 405 nm. TRAP activity was presented as a % of control, and a significance test was performed by t-test at the same time (purmorphamine treatment p<0.01; colforsin daropate treatment p<0.001). Purmorphamine was used as a control compound.

The subject of data set [6] is murine monocytic cell line, RAW264.7. Briefly: Cytotoxicity test of monocytes (CCK-8 kit). The class given is cell-based. Conditions: RAW264.7, 0, 10, 20 and 30 μM, after 1, 2 and 4 days, FIG. 1, monohydrochloride. The procedure: The murine monocytic cell line, RAW264.7 (ATTC TIB-71) was cultured in a DMEM medium supplemented with 10% FBS, and the medium was replaced every other day. The cell culture reagents were purchased from Hyclone. When RAW264.7 cells reached 70% confluence, the collected cells were aliquotted into a 96-well plate at a density of 1×10^3/well, and cultured for 24 hours. Subsequently, the cells were treated with colforsin daropate at various concentrations (0, 10, 20 and 30 μM), and cultured for 96 hours. After 1, 2, and 4 days in culture, a cytotoxicity test was performed using the cells in each well and a CCK-8 kit (Dojindo, Japan).
A general note: Formazan colour is commonly taken as a measure of viable cells.

Consider `C=C[C@@]1(C)CC(=O)[C@]2(O)[C@@]3(C)[C@@H](O)CCC(C)(C)[C@@H]3[C@H](OC(=O)CCN(C)C)[C@H](OC(C)=O)[C@@]2(C)O1.Cl` [colforsin daropate], for which, in data set [1], the “bone density / ovariectomy-induced bone loss” value is “remarkably increased; also recorded: remarkably improved”. Besides, in data set [2], the cell proliferation result is given as “did not affect cell proliferation”. Besides, the ALP activity result in data set [3] is given as “also remarkably increased”; in data set [4] (MC3T3-E1 subclone 4, after 8 days, % of control, FIG. 3A) it was “remarkably increased”. Further, the “osteoblast differentiation-related ALP activity compared with the control compound purmorphamine” value in data set [4] (versus purmorphamine) is “more increased”. Besides, the “TRAP activity induced by RANKL” value in data set [5] (RAW264.7, 100 ng/ml RANKL, 0.2-20 μM, 3 days, % of control, FIG. 2) is “inhibited TRAP activity induced by RANKL in the monocytic cell line RAW264.7 in a concentration-dependent manner”. Also, in data set [5] (RAW264.7 with RANKL, FIGS. 1 and 2), the osteoclast differentiation result is listed as “efficacy of inhibiting osteoclast differentiation”. The cytotoxicity entry in data set [6] is given as “no cytotoxicity; also recorded: without cytotoxicity”.
